{"source": "patent US9133115B2", "about": "(ACHILLION PHARMACEUTICALS, INC., priority 2008, dated 2015)", "data": [{"tested_on": "HCV replicon", "assay": "HCV replicon replication assay (NPT ELISA) in Huh-7 replicon-containing cells", "format": "cell-based", "details": "Hepatitis C virus, 72 h; HCV replicon in Huh-7 cells, three days incubation; read-out: EC50", "protocol": "Compounds claimed herein are tested for the ability to inhibit viral replication of the Hepatitis C replicon in cultured cells in which the HCV replicon construct has been incorporated. The HCV replicon system was described by Bartenschlager, et. al (Science, 285, pp. 110-113 (1999)). The replicon system is predictive of in vivo anti-HCV activity; compounds that are active in humans uniformly evidence activity in the replicon assay.\nIn this assay HCV replicon containing cells are treated with different concentrations of the test compound to ascertain the ability of the test compound to suppress replication of the HCV replicon. As a positive control, HCV replicon-containing cells are treated with different concentrations of interferon alpha, a known inhibitor of HCV replication. The replicon assay system includes Neomycin Phosphotransferase (NPT) as a component of the replicon itself in order to detect the transcription of replicon gene products in the host cell. Cells in which the HCV replicon is actively replicating have high levels of NPT; the level of NPT is proportional to HCV replication. […] The NPT level of each sample is measured using a captured ELISA.\nA protocol for testing compounds for the ability to inhibit viral replication of the Hepatitis C replicon cultured cells in which the replicon construct has been incorporated, follows.\nThe HCV replicon contains, 5′-3′, the HCV-IRES, the neomycin phosphotransferase (neo) gene, the IRES of encephalomyocarditis virus, which directs translation of HCV sequences NS3 to NS5B, and the 3′-NTR. The sequence of the HCV replicon has been deposited in GenBank (Accession no. AJ242652).\nThe replicon is transfected into Huh-7 cells using standard methods such as electroporation.\nThe equipment and materials include, but are not limited to, Huh-7 HCV replicon-containing cells, maintenance media (DMEM (Dulbecco's modified Eagle media) supplemented with 10% FBS, L-glutamine, non-essential amino acids, penicillin (100 units/ml), streptomycin (100 micrograms/ml), and 500 micrograms/ml of Geneticin (G418), screening media (DMEM supplemented with 10% FBS, L-glutamine, non-essential amino acids, penicillin (100 units/ml) and streptomycin (100 micrograms/ml)), 96 well tissue culture plates (flat bottom), 96 well plates (U bottom for drug dilution), Interferon alpha for positive control, fixation reagent (such as methanol: acetone), primary antibody (rabbit anti-NPTII), secondary antibody: Eu-N1 l, and enhancement solution.\nHCV replicon-containing cells support high levels of viral RNA replicon replication when their density is suitable. Over-confluency causes decreased viral RNA replication. Therefore, cells must be kept growing in log phase in the presence of 500 micrograms/ml of G418. Generally, cells should be passed twice a week at 1: 4-6 dilution. Cell maintenance is conducted as follows:\nHCV replicon-containing cells are examined under a microscope to ensure that cells growing well. Cells are rinsed once with PBS and 2 ml trypsin is added. The cell/trypsin mixture is incubated at 37° C. in a CO2 incubator for 3-5 minutes. After incubation 10 ml of complete media is added to stop the trypsinization reaction. Cells are blown gently, put into a 15 ml tube, and spun at 1200 rpm for 4 minutes. The trypsin/medium solution is removed. Medium (5 ml) is added and the cells are mixed carefully. The cells are counted.\nThe cells are then seeded onto 96-well plates at a density of 6000-7500 cells/100 microliters/well (6-7.5×10^5 cells/10 ml/plate). The plates are then incubated at 37° C. in a 5% CO2 incubator.\nCells are examined under a microscope approximated 24 hours after seeding and prior to adding drugs. If counting and dilution were performed correctly, cells are 60-70% confluent and nearly all cells should attach and spread evenly in the well.\nHCV replicon-containing cells are rinsed with once PBS once; 2 mls of trypsin are then added. Cells are incubated at 37° C. in a 5% CO2 incubator for 3-5 minutes. […]", "units": {"EC50": "µM"}, "values": [{"compound": "C=C[C@@H]1C[C@]1(NC(=O)[C@@H]1C[C@@H](NC(=O)c2cc(-c3ccccc3)nc3ccccc23)CN1C(=O)[C@@H](CC(=O)N1CCC(F)CC1)C(C)(C)C)C(=O)NS(=O)(=O)C1CC1", "note": "[Compound 205, N-((3R,5S)-1-((S)-2-tert-butyl-4-(4-fluoropiperidin-1-yl)-4-oxobutanoyl)-5-((1R,2S)-1-(cyclopropylsulfonyl-carbamoyl)-2-vinyl-cyclopropyl-carbamoyl)pyrrolidin-3-yl)-2-phenylquinoline-4-carboxamide]", "EC50": "< 1"}, {"compound": "CC[C@@H]1C[C@]1(NC(=O)[C@@H]1C[C@@H](Oc2cc(-c3ccccc3)nc3cc(OC)ccc23)CN1C(=O)[C@@H](CC(=O)N1CCCCC1)C(C)(C)C)C(=O)NS(=O)(=O)C1CC1", "note": "[Compound 149, (2S,4R)-1-((S)-2-tert-butyl-4-oxo-4-(piperidin-1-yl)butanoyl)-N-((1R,2R)-1-(cyclo-propylsulfonyl-carbamoyl)-2-ethylcyclopropyl)-4-(7-methoxy-2-phenylquinolin-4-yloxy)pyrrolidine-2-carboxamide]", "EC50": "< 1"}, {"compound": "C=C[C@@H]1C[C@]1(NC(=O)[C@@H]1C[C@@H](O)CN1C(=O)[C@@H](CC(=O)N1CCCCC1)C(C)(C)C)C(=O)NS(=O)(=O)C1CC1", "note": "[Compound 84, (2S,4R)-1-((S)-2-tert-butyl-4-oxo-4-(piperidin-1-yl)butanoyl)-N-((1R,2S)-1-(cyclo-propylsulfonyl-carbamoyl)-2-vinylcyclopropyl)-4-hydroxypyrrolidine-2-carboxamide]", "EC50": "1 to 10"}, {"compound": "C=C[C@@H]1C[C@]1(NC(=O)[C@@H]1C[C@@H](Oc2cc(-c3ccccc3)nc3cc(OC)ccc23)CN1C(=O)[C@@H](CC(=O)N1CCC2CCCCC2C1)C(C)(C)C)C(=O)NS(=O)(=O)C1CC1", "note": "(stereo partly drawn) [Compound 74, (2S,4R)-1-((2S)-2-tert-butyl-4-(octa-hydroisoquinolin-2(1H)-yl)-4-oxobutanoyl)-N-((1R,2S)-1-(cyclo-propylsulfonyl-carbamoyl)-2-vinylcycloprop-yl)-4-(7-methoxy-2-phenylquinolin-4-yloxy)pyrrolidine-2-carboxamide]", "EC50": "< 1"}, {"compound": "C=C[C@@H]1C[C@]1(NC(=O)[C@@H]1C[C@@H](Oc2cc(-c3ccccc3)nc3cc(OC)ccc23)CN1C(=O)[C@@H](CC(=O)N1CCCC(F)(F)C1)C(C)(C)C)C(=O)NS(=O)(=O)C1CC1", "note": "[Compound 108, (2S,4R)-1-((S)-2-tert-butyl-4-(3,3-difluoropiperidin-1-yl)-4-oxobutanoyl)-N-((1R,2S)-1-(cyclo-propylsulfonyl-carbamoyl)-2-vinylcyclopropyl)-4-(7-methoxy-2-phenylquinolin-4-yloxy)pyrrolidine-2-carboxamide]", "EC50": "< 1"}, {"compound": "C=CC1C[C@]1(NC(=O)[C@@H]1C[C@@H](Oc2cc(-c3csc(C(C)C)n3)nc3c(C)c(OC)ccc23)CN1C(=O)[C@@H](CC(=O)N1CCCC(F)(F)C1)C(C)(C)C)C(=O)NS(=O)(=O)C1CC1", "note": "(stereo partly drawn) [Compound 254, (2S,4R)-1-((S)-2-tert-butyl-4-(3,3-difluoropiperidin-1-yl)-4-oxobutanoyl)-N-((1R)-1-(cyclopropyl-sulfonylcarbamoyl)-2-vinylcyclopropyl)-4-(2-(2-isopropylthiazol-4-yl)-7-methoxy-8-methylquinolin-4-yloxy)pyrrolidine-2-carboxamide]", "EC50": "< 1"}, {"compound": "C=C[C@@H]1C[C@]1(NC(=O)[C@@H]1C[C@@H](Oc2cc(-c3ccccc3)nc3cc(OC)ccc23)CN1C(=O)[C@@H](CC(=O)N1CCCC(=O)C1)C(C)(C)C)C(=O)NS(=O)(=O)C1CC1", "note": "[Compound 141, (2S,4R)-1-((S)-2-tert-butyl-4-oxo-4-(3-oxopiperidin-1-yl)butanoyl)-N-((1R,2S)-1-(cyclo-propylsulfonyl-carbamoyl)-2-vinylcyclopropyl)-4-(7-methoxy-2-phenylquinolin-4-yloxy)pyrrolidine-2-carboxamide]", "EC50": "< 1"}]}]}
